Test results from patent publication US20250222109A1, “STRUCTURED LIPID COMPOSITIONS” (Universität Bern, priority 2022, published 2025).
Counter-ions that a name gives are not always drawn.

Key:
[1] = SAXS phase identification of MLO-water mesophases (TIF-Gel); assay type: physicochemical
Protocol: SAXS measurements were used to determine the phase identity and symmetry of the produced LMPs. Measurements were performed on a Bruker AXS Micro, with a microfocused X-ray source, operating at voltage and filament current of 50 kV and 1000 μA, respectively. The Cu Kα radiation (λCu Kα=1.5418 Å) was collimated by a 2D Kratky collimator, and the data were collected by a 2D Pilatus 100K detector. The scattering vector Q=(4π/λ) sin θ, with 2θ being the scattering angle, was calibrated using silver behenate. Data were collected and azimuthally averaged using the Saxsgui software to yield 1D intensity vs. scattering vector Q, with a Q range from 0.001 to 0.5 Å^−1. For all measurements the samples were placed inside a stainless-steel cell between two thin replaceable mica sheets and sealed by an O-ring, with a sample volume of 10 μL and a thickness of ˜1 mm. Measurements were performed at 25° C., 30° C., 34° C., 36° C. and 38° C. Samples were equilibrated for 10 min before measurements whereas scattered intensity was collected over 30 min and over 60 min in case of lamellar phase. On the other hand, for the kinetic study, the sample was pre equilibrated at 25° C. and inserted in the sample holder kept at 38° C. and the scattered intensity collected over 5 min. To determine the structural parameters such as the size of the water channels, SAXS data information on the lattice were combined with the composition of the samples (R. Mezzenga, et al., Shear rheology of lyotropic liquid crystals: a case study, Langmuir 21, 3322-3333 (2005)).
MLO was used as the lipid component of the mesophases and mixed with weighed amounts of drugs (10% w/w) in sealed Pyrex tubes and alternatively centrifuging (10 min, 5000 g) several times at room temperature until a homogenous mixture was obtained. The mesophase was then equilibrated for 48 h at room temperature in the dark (see, FIGS. 1A and 1B).
Firstly, small angle X-ray scattering (SAXS) measurements were used to determine the optimal amount of water needed to obtain a lamellar phase which provides a transition to a cubic at 38° C. (FIGS. 2B and 2C). The X-ray beam directed at the gel results in a scattering pattern with a set of maxima, that correspond to sharp Bragg reflections characteristic of the long-range positional order. The sequence of Bragg reflections (and their ratio; listed in FIG. 2A) identifies the symmetry of the mesophase studied (See also FIGS. 1A and 1B).

[2] = as above; assay type: physicochemical; conditions: 5 mg of TOFA and 1 mg of TAC in 100 mg of gel
[3] = In vitro release of TOFA and TAC from TIF-Gel, vertical diffusion cells; assay type: physicochemical; conditions: HEPES pH 7.4, 37° C., 8 h
From the text: In the in vitro release experiments, drug-loaded TIF-Gel formulations were placed in the donor chamber of a vertical diffusion cell (as depicted in FIG. 3G) and kept separated from the acceptor chamber by a polycarbonate membrane with pore diameter of 3 μm, which allows the passage of the free drugs only.

[4] = Drug encapsulation and distribution in TIF-Gel (WAXS, HPLC of gel layers); assay type: physicochemical
Protocol: The tube was centrifuged and kept at rest for 24 hours. Subsequently, the gel was divided into 3 different layers (Top, Middle, and Bottom), and the drug content evaluated in each by HPLC.
WAXS measurements were performed on a Bruker AXS Micro, with a microfocused X-ray source, operating at voltage and filament current of 50 kV and 1000 μA, respectively. The Cu Kα radiation (λCu Kα=1.5418 Å) was collimated by a 2D Kratky collimator, and the data were collected by a 2D Pilatus 100K detector. The scattering vector Q=(4π/λ) sin θ, with 2θ being the scattering angle, was calibrated using silver behenate. Data were collected and azimuthally averaged using the Saxsgui software to yield 1D intensity vs. scattering vector Q, with a Q range from 13 to 18 nm-1. For all measurements the samples were placed inside a stainless-steel cell between two thin replaceable mica sheets and sealed by an O-ring, with a sample volume of 10 μL and a thickness of ˜1 mm.
The TAC loaded mesophase composition comprised: a) a carrier comprising: a1) water in an amount of 16% by weight of the carrier; and a2) MLO in an amount of 84% by weight of the carrier; and b) TAC in an amount of 1% by weight of the composition.

[5] = system: dextran sulfate sodium (DSS)-induced acute colitis; experiment: Chemically induced colitis based on application of DSS; assay type: in vivo, mice
From the text: Female 6-8 week-old C57B/6J Mice (ex. Charles River Germany) were maintained under specific and opportunistic pathogen-free (SOPF) microbiota conditions at the animal facility of the University of Bern. Mice were ear marked, randomly assigned to different cages and treatment groups, and bedding mixed between all cages to avoid potential cage effects on microbiota. All methods used were approved by the Bernese animal welfare authority (permission no. BE 20/18). […] The next day, mouse drinking water was supplemented with 2% w/v dextran sodium sulfate (DSS; MP Biomedicals, 160110). Every other day, the different compounds were applied intra-rectally until the end of the experiment. During the experiment, the mice were constantly monitored and the weight and disease scores were recorded when appropriate. Disease score was determined by grading of 1-4 of the following criteria (with grade 4 corresponding to most unhealthy/abnormal): posture, mobility, fur appearance, weight, stool consistency, and stool colour (L. F. Mager, et al., The ESRP1-GPR137 axis contributes to intestinal pathogenesis, Elife 6 (2017), doi: 10.7554/eLife.28366.). […]
The gating strategy was adapted from the inventors previously published work (S. E. Liyanage, et al., Flow cytometric analysis of inflammatory and resident myeloid populations in mouse ocular inflammatory models, Exp. Eye Res. 151, 160-170 (2016)). […] Splenocytes were quantified using a CASY cell counter (Omni Life Sciences) and the following populations were quantified following single cell and live/dead selection (Thermofischer, L34961). […] Stained cells were analysed on a BD Bioscience LSR II SORP flow cytometer.
DSS is toxic to epithelial cells and its application compromises the integrity of the intestinal barrier, thereby leading to activation of submucosal immune cells by intestinal microbes. Through experimentation, it was determined that bi-daily application of the gel yielded robust mitigation of local and systemic inflammation.

[6] = Stability study of TAC and TOFA-loaded TIF-Gel (HPLC); assay type: physicochemical; conditions: 4° C. and 25° C., one-month period
Protocol: The TAC and TOFA-loaded TIF-Gels were prepared according to Example 1. […] The TAC-loaded TIF-Gel composition comprised a) a carrier comprising: a1) water in an amount of 16% by weight of the carrier; and a2) MLO in an amount of 84% by weight of the carrier; and b) TAC in an amount of 1% by weight of the composition. […] At specific time points, an aliquot of the formulation was analysed at the HPLC, and the content of the drug was recorded. Data are expressed as relative percentage referred to day 0.

[7] = rectal, every other day, vs empty TIF-Gel

Row | SMILES | phase identity (SAXS) ([1]; 12% of water, 25° C. and 38° C.) | phase identity (SAXS) ([1]; 14% of water, 25° C.) | phase identity (SAXS) ([1]; 14% of water, 38° C.) | phase identity (SAXS) ([1]; 16% w/w of water and 84% w/w of MLO, 25° C.) | phase identity (SAXS) ([1]; 16% w/w of water and 84% w/w of MLO, 38° C.) | temperature of the L→Q transition ([1]; 18% w/w of water) | phase transition in the presence of lipase ([1]; lipase 1000 U/mL) | time of conversion of precursor L phase into the cubic phase ([1]; once applied into the rectum) | effect of drug entrapment on phase identity and thermal behaviour of the carrier gel [2] | effect of drug on phase identity and transition temperature of the gel ([1]; 10% w/w of drug, lamellar at room temperature, cubic (Ia3d) at 38° C.) | drug release from the gel vs free drug, in vitro [3] | distribution of drug in the gel matrix ([4]; Top, Middle and Bottom gel layers, HPLC) | drug crystallisation in the gel (WAXS) ([4]; embedded in the 3D gel structure) | encapsulation efficacy ([4]; encapsulated in the TIF-Gel) | local pro-inflammatory cytokine levels ([5]; colon tissue) | disease score / disease severity [5, 7] | weight loss [5, 7] | long-term stability of drug loaded into TIF-gel (drug content by HPLC) [6]
1 | CCCCC/C=C\C/C=C\CCCCCCCC(=O)OCC(O)CO (stereo not drawn) [MLO, 2,3-dihydroxypropyl(9Z,12Z)-9,12-octadecadienoate] | L phase | lamellar structure | coexistence of L and Q structure (with a Ia3d geometry) | lamellar structure | Q structure (with a Ia3d geometry) | 30 °C | Q→Hexagonal phase (H) | < 5 min |  |  |  |  |  |  |  |  |  | 
2 | C[C@@H]1CCN(C(=O)CC#N)C[C@@H]1N(C)c1ncnc2[nH]ccc12 [TOFA, Tofacitinib citrate] |  |  |  |  |  |  |  |  | did not affect the phase identity and thermal behaviour | did not affect the phase identity and the transition temperature | decreased the release rate | homogeneously distributed | do not form crystals | 100% | reduced | did not improve the disease score | improving weight loss | stable
